Measurements published in ChEMBL document CHEMBL1130645, “Synthesis and evaluation of artificial taxoids with antitumor and multi-drug resistance reversing activities” (1998).

Key:
Homo sapiens = species: Homo sapiens; experiment: Compound was evaluated for inhibition of tumor cell growth using sulforhodamine-B assay in human BSY-1 cell.; format: functional
[1] = Compound was evaluated for vincristine accumulation in ovarian MDR cancer cells (2780AD) at a concentration of 1.0 ug/mL.; format: functional, Homo sapiens
[2] = Compound was evaluated for vincristine accumulation in ovarian MDR cancer cells (2780AD) at a concentration of 10 ug/mL.; format: functional, Homo sapiens
[3] = Compound was evaluated for inhibition of tumor cell growth using sulforhodamine-B assay in 38 human cell lines; format: functional
P388 = experiment: Compound was evaluated for inhibition of tumor cell growth using sulforhodamine-B assay in mouse […] p338 cell line; format: functional

| Compound | GI50 (Homo sapiens) [µM] | Control [1] [%] | Control [2] [%] | GI50 [3] [µM] | GI50 (P388) [µM] |
| --- | --- | --- | --- | --- | --- |
| CC1=C2[C@@H](Sc3ccccc3)[C@H](OCCO)C3=C([C@H](OCc4ccccc4)[C@](O)(C[C@@H]1OC(=O)[C@H](O)[C@@H](NCc1ccccc1)c1ccccc1)C2(C)C)[C@@](C)(O)CCC3 | 9.5 | 151 | 217 |  |  |
| CC(=O)O[C@@]1(C)CCCC2=C1[C@H](OCc1ccccc1)[C@]1(O)C[C@H](OC(=O)[C@H](O)[C@@H](NCc3ccccc3)c3ccccc3)C(C)=C([C@@H](Sc3ccccc3)[C@@H]2OCCO)C1(C)C |  | 80 | 102 | 10 | 10 |
